Measurements: ChEMBL document CHEMBL1201862, “PubChem BioAssay data set” (2004)
Blank lines part the entries; values can stand above or below the compound they belong to. The source made the active and inactive calls.

Tests used:
[1] = target: Protein kinase C gamma type (Homo sapiens, UniProt P05129); type: functional
[2] = target: Protein kinase C delta type (Homo sapiens, UniProt Q05655); type: functional
[3] = target: Protein kinase C zeta type (Homo sapiens, UniProt Q05513); type: functional;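 also: measured as one member of a broad kinase profiling panel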
[4] = target: Calcium/calmodulin-dependent protein kinase type 1 (Homo sapiens, UniProt Q14012); type: functional
Sequence of Calcium/calmodulin-dependent protein kinase type 1 (Q14012 whole entry): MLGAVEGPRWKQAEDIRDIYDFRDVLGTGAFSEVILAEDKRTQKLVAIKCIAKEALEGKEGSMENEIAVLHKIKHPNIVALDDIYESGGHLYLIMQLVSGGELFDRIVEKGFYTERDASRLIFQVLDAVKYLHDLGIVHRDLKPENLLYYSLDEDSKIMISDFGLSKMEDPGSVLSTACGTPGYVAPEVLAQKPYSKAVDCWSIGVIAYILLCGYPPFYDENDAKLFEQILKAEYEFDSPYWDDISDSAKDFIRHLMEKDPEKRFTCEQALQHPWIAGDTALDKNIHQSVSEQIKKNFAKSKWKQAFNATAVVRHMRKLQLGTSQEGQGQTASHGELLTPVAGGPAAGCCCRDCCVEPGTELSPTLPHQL

[5] = target: Serine/threonine-protein kinase PAK 1 (Homo sapiens, UniProt Q13153); type: functional
[6] = target: Serine/threonine-protein kinase MRCK alpha (Homo sapiens, UniProt Q5VT25); type: functional
Sequence of Serine/threonine-protein kinase MRCK alpha (Q5VT25 whole entry): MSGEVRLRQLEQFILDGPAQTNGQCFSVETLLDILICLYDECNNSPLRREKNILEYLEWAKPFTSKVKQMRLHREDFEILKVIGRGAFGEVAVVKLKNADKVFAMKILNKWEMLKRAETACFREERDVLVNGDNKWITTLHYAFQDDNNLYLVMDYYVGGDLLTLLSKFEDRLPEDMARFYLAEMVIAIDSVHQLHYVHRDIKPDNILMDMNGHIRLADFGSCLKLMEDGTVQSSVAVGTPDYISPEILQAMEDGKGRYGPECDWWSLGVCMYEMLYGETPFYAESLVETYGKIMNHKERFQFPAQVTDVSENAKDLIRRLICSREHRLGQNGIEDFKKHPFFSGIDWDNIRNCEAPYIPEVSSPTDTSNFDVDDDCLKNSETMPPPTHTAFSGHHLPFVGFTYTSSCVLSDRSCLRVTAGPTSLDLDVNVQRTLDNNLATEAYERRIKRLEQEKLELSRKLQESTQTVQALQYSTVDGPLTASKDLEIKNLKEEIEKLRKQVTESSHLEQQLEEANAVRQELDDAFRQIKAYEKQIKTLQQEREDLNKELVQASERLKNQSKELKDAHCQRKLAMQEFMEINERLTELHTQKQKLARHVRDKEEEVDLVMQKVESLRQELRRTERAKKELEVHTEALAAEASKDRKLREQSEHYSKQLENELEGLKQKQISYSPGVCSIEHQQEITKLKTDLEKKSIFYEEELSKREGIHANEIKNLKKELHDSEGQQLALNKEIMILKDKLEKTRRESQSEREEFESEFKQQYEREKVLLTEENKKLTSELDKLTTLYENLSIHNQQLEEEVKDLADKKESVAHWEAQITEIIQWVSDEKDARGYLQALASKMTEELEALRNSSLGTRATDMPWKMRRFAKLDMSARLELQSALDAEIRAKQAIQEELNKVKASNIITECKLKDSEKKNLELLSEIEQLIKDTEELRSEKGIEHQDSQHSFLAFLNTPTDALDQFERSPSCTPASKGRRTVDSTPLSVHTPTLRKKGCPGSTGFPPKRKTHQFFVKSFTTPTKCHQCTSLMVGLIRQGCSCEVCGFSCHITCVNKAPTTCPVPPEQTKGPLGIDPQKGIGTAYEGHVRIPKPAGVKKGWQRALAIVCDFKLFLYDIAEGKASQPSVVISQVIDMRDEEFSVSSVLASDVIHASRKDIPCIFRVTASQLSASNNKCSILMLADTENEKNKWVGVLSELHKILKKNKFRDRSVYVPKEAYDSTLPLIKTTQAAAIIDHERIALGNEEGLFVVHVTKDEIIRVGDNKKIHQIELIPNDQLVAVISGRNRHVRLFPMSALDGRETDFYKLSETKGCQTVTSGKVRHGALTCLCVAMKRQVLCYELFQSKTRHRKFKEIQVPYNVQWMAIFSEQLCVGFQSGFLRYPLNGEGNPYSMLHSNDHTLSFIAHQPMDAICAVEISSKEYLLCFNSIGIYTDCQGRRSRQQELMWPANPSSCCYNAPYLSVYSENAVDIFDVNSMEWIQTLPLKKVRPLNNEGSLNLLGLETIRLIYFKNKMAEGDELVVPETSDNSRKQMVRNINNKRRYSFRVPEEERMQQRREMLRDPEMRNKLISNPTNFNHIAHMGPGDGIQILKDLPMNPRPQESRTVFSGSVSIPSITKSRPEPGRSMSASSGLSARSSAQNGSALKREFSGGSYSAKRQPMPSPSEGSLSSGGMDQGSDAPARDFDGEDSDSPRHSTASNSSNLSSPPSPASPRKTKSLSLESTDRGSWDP

[7] = target: Serine/threonine-protein kinase pim-1 (Homo sapiens, UniProt P11309); type: functional
Sequence of Serine/threonine-protein kinase pim-1 (P11309 whole entry): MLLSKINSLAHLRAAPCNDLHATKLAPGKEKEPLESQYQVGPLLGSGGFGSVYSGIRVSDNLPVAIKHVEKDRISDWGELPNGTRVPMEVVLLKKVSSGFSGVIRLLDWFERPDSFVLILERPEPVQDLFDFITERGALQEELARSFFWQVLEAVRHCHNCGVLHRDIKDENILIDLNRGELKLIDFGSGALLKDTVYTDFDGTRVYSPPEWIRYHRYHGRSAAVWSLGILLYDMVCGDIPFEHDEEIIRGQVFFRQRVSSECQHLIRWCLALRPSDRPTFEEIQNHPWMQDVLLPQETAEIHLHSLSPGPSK

[8] = target: Short transient receptor potential channel 6 (Mus musculus, UniProt Q61143); assay: TRPC6 inhibition potency of TRPC4 inhibitor analogs, dose response, selectivity assay for selective TRPC4 inhibitor project, HEK293 cells, membrane potential dye, IC50 (AID 492987); type: functional, cell-based
[9] = target: T1, Short transient receptor potential channel 4 (Mus musculus, UniProt Q9QUQ5); assay: TRPC4 inhibition under acetylcholine activation, SAR follow-up, cell-based, acetylcholine stimulus, HEK293 TRPC4, Fluo-4 (AID 492996); type: functional
T1 sequence (Q9QUQ5 whole entry): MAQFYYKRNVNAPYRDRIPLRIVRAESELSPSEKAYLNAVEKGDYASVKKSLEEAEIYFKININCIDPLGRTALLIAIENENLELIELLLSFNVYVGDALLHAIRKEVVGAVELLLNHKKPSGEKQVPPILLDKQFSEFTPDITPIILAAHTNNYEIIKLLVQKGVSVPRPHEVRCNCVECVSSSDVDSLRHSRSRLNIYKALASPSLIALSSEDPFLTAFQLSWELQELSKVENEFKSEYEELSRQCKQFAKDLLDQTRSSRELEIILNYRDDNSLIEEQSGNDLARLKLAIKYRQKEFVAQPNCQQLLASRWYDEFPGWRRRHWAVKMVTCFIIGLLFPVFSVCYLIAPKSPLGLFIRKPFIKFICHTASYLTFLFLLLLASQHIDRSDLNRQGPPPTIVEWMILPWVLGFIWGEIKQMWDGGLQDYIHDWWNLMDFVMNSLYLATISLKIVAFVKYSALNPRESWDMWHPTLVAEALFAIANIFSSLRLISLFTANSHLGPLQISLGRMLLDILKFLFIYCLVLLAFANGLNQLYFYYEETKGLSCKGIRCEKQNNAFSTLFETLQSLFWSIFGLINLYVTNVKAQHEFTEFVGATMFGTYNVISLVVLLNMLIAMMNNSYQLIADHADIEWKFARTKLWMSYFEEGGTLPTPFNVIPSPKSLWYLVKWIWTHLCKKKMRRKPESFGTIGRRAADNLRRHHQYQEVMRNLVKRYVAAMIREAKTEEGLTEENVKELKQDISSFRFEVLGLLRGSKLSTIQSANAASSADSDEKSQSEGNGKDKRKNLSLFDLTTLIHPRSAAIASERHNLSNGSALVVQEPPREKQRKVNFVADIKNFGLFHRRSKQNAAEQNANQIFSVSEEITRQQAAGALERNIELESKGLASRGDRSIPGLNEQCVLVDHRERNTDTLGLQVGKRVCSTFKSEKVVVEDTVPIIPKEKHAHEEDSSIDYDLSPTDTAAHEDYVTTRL

[10] = target: T1, Short transient receptor potential channel 4; assay: SAR Analysis for the identification of selective inhibits of the transient receptor potential cation channel C4 (TRPC4): Automated Electrophysiology. [Related pubchem assays (depositor defined):AID2256]; type: functional
[11] = target: T1, Short transient receptor potential channel 4; assay: SAR Analysis for the identification of selective inhibitors of the transient receptor potential cation channel C4 (TRPC4): TRPC4 Serotonin Receptor CRC MPD assay. [Related pubchem assays (depositor defined):AID2247, AID2256]; type: functional
[12] = target: T1, Short transient receptor potential channel 4; assay: TRPC4 inhibitor concentration-response, dose response, cell-based, HEK293 TRPC4/mu-opioid, DAMGO stimulus, Fluo-4 (AID 492994); type: functional
[13] = system: HEK293; assay: inhibitors of LMP1-driven NF-kB reporter, dose response, cell-based, HEK293, luciferase, cherry-pick (AID 588343); type: functional; details: Homo sapiens
[14] = target: Dual specificity tyrosine-phosphorylation-regulated kinase 1A (Rattus norvegicus, UniProt Q63470); type: biochemical, Homo sapiens
[15] = target: Latent membrane protein 1 (Human herpesvirus 4 (strain B95-8), UniProt P03230); assay: TES1-eGFP NF-kB reporter inhibition versus Tet-On dsRED, dose response, selectivity assay for LMP1 NF-kB inhibitor project, imaging, HEK293T, dual-color eGFP/dsRED, cherry-picks (AID 588398); type: functional, cell-based
Sequence of Latent membrane protein 1 (P03230 whole entry, the tested form may be a part): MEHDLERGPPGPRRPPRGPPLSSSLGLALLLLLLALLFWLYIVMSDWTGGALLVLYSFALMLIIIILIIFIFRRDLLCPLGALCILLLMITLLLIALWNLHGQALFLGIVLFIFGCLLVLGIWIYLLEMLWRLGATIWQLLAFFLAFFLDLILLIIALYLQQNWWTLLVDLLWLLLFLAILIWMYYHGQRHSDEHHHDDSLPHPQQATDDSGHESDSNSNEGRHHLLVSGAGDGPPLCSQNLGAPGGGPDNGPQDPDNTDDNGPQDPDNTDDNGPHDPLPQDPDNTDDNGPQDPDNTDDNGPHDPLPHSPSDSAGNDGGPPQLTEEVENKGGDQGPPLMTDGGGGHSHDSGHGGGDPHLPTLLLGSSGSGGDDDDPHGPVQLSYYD

[16] = off-target signal loss in HeLa-CEM21 co-culture – HeLa F-luc CTL cells, cherry-picked, counter-screen for HIV-1 Env fusion inhibitor project, dose response (AID 652040); type: functional, cell-based;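 also: potency for signal decrease marking cytotoxic or nonspecific inhibition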
[17] = inhibitors of HIV Env-driven cell fusion, dose response, cherry-pick (AID 652057); type: functional, cell-based
[18] = target: Luciferin 4-monooxygenase (Photuris pensylvanica, UniProt Q27757); assay: firefly luciferase enzyme inhibitors, dose response, counter-screen for HSF-1 reporter inhibitor project, biochemical, Cell Titer Glo, luminescence, cherry-picks (AID 588847)
Sequence of Luciferin 4-monooxygenase (Q27757 whole entry): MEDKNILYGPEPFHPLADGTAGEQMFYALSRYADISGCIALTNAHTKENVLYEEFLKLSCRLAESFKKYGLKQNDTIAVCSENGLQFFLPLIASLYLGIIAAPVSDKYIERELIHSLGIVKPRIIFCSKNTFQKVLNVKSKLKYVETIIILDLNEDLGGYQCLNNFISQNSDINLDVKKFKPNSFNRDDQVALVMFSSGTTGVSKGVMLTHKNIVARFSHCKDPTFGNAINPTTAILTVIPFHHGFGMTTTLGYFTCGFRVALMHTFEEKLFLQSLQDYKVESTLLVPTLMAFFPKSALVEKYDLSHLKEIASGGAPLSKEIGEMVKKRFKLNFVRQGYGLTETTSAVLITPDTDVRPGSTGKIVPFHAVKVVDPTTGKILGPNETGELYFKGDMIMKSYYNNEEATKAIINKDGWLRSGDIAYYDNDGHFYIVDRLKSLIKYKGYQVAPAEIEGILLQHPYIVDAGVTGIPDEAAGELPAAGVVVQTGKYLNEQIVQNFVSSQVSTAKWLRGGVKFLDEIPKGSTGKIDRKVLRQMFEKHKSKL

[19] = target: T2, Heat shock factor protein 1 (Mus musculus, UniProt P38532); assay: inhibition of MG132-induced HSE-luciferase signal, confirmation, cell-based, NIH3T3, luminescence, dose retest (AID 2382); type: functional;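 also: NIH3T3 fibroblasts with HSF1-driven luciferase reporter stressed by proteasome inhibitor MG132; luminescence from HSF1-driven luciferase expression after 8 hours of MG132 stress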
T2 sequence (P38532 whole entry): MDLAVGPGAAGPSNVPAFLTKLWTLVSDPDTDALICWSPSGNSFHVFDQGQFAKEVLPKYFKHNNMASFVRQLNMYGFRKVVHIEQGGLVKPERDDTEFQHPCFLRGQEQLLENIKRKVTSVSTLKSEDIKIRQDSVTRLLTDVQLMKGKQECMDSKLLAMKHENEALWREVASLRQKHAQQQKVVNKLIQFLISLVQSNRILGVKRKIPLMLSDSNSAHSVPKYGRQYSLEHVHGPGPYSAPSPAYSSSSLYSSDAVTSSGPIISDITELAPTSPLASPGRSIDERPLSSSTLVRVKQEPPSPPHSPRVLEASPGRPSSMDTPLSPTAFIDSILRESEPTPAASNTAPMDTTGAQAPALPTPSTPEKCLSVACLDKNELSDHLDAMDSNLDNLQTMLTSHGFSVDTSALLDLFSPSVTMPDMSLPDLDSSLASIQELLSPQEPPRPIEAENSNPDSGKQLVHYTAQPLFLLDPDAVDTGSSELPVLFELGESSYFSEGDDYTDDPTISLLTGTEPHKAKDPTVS

[20] = inhibitors of clade B AD8 Env fusion, dose response, cell-based, cherry-pick (AID 652062); type: functional;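 also: luciferase signal from cell-cell fusion driven by HIV-1 clade B AD8 Env; potency is for inhibitors of fusion seen as a drop in luminescence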
[21] = (§1) Counterscreen for antagonists of the orexin 1 receptor (OX1R; HCRTR1): Fluorescence-based cell-based high throughput dose response assay to identify antagonists of the parental CHO cell line. [Related pubchem assays (depositor defined):AID434989, AID435008, AID463079, AID485270, AID492963, AID492964, AID492965, AID493232, AID504699, AID504701]; type: functional
[22] = target: T3, Orexin/Hypocretin receptor type 1 (Homo sapiens, UniProt O43613); assay: (§2) Fluorescence-based cell-based high throughput dose response assay for antagonists of the orexin 1 receptor (OX1R; HCRTR1). [Related pubchem assays (depositor defined):AID434989, AID435008, AID463079, AID485270, AID492963, AID492964, AID492965, AID493232, AID504717, AID504718]; type: functional
T3 sequence (O43613 whole entry): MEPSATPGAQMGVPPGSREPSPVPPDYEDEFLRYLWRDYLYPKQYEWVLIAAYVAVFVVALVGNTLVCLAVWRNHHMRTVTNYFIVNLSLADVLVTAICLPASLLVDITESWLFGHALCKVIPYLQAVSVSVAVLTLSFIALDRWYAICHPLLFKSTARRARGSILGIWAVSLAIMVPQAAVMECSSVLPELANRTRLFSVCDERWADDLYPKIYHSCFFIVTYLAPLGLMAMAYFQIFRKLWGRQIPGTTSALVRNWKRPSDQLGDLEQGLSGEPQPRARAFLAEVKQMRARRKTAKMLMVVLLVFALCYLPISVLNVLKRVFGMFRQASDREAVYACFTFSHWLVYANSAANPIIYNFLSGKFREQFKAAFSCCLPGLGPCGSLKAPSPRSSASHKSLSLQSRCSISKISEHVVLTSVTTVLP

[23] = target: T3, Orexin/Hypocretin receptor type 1; assay: as §2, with “Homogeneous Time Resolved Fluorescence (HTRF)-based” for “Fluorescence-based”; type: functional
[24] = target: T4, Orexin receptor type 2 (Homo sapiens, UniProt O43614); assay: Counterscreen assay for antagonists of the orexin 1 receptor (OX1R; HCRTR1): Fluorescence-based cell-based dose response assay for antagonists of the orexin 2 receptor (OX2R; HCRTR2), run by assay provider.; type: functional
T4 sequence (O43614 whole entry): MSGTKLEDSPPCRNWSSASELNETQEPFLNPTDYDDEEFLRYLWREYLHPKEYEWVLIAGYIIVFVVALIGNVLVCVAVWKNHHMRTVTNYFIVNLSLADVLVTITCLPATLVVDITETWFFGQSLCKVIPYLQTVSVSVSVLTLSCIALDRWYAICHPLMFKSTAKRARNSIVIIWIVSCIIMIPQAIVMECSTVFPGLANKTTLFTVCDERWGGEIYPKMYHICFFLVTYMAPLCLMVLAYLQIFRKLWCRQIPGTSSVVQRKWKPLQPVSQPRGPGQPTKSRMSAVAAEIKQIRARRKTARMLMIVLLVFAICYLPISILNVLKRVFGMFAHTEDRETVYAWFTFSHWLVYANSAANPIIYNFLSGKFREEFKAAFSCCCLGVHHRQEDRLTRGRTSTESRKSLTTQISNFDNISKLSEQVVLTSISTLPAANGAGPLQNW

[25] = target: T4, Orexin receptor type 2; assay: Counterscreen assay for antagonists of the orexin 1 receptor (OX1R; HCRTR1): Homogeneous Time Resolved Fluorescence (HTRF)-based cell-based dose response assay for antagonists of the orexin 2 receptor (OX2R; HCRTR2), run by assay provider.; type: functional
[26] = system: CHO-K1; assay: as §1, with “Homogeneous time resolved fluorescence (HTRF)-based” for “Fluorescence-based”, “cell-based” for “cell-based high throughput”, “CHO-K1” for “CHO”; type: functional; details: Cricetulus griseus;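 also: potency for inhibition of ATP-stimulated IP1 production as antagonists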

- Ki [1]: 3.98 µM (active)
- Ki [2]: 2.51 µM (active)
- Ki [3]: 7.94 µM (active)
- Ki [4]: 7.94 µM (active)
- Ki [5]: 2 µM (active)
- Ki [6]: 6.31 µM (active)
- Ki [7]: 5.01 µM (active)
Compound: CC(C)c1ccc2c(c1)c(SC(C)(C)C)c(CC(C)(C)CNCCCO)n2Cc1ccc(Cl)cc1

- IC50 [8]: 14.1 µM (active)
- IC50 [9]: 9.52 µM (active)
- IC50 [10]: 2.05 µM (active)
- IC50 [11]: 4.23 µM (active)
- IC50 [12]: 0.483 µM (active)
Compound: CCc1ccc2nc(N3CCCC3)cc(C)c2c1

Compound: CC1=C(C(=O)OCc2ccc3c(c2)OCO3)C(c2ccc(F)cc2)NC(=O)N1 (stereo unspecified)
- AC50 [13]: 3.36 µM (active)
- AC50 [14]: 1.85 µM (active)
- AC50 [15]: 9.67 µM (active)
- AC50 [16]: 0.576 µM (active)
- AC50 [17]: 0.284 µM (active)
- AC50 [18]: > 52 µM (inactive)
- EC50 [19]: < 0.16 µM (active)
- AC50 [20]: 1.47 µM (active)

Compound: CNc1oc(-c2cccc3ccccc23)nc1C#N
- IC50 [21]: > 49.7 µM (inactive)
- IC50 [22]: 3.48 µM (active)
- IC50 [23]: 0.887 µM (active)
- IC50 [24]: > 88.8 µM (inactive)
- IC50 [25]: > 50 µM (inactive)
- IC50 [26]: > 66.2 µM (inactive)
